Experimental data taken from ChEMBL document CHEMBL1909046, “DrugMatrix in vitro pharmacology data”.

How the values were obtained:
[1] = molecular target: Beta-1 adrenergic receptor (Homo sapiens, UniProt P08588); assay: DRUGMATRIX: Adrenergic beta1 radioligand binding (ligand: [125I] Cyanopindolol); format: cell membranes, CHO-K1, Membrane; details: cho-k1; Not Active = under 50% inhibition at 10 µM
Calcitonin receptor = molecular target: T1, Calcitonin receptor (Homo sapiens, UniProt P30988); format: cell membranes, Membrane; details: t47d; further: in other assays of this panel Not Active means under 50% inhibition at 10 µM
T1 sequence (P30988 whole entry): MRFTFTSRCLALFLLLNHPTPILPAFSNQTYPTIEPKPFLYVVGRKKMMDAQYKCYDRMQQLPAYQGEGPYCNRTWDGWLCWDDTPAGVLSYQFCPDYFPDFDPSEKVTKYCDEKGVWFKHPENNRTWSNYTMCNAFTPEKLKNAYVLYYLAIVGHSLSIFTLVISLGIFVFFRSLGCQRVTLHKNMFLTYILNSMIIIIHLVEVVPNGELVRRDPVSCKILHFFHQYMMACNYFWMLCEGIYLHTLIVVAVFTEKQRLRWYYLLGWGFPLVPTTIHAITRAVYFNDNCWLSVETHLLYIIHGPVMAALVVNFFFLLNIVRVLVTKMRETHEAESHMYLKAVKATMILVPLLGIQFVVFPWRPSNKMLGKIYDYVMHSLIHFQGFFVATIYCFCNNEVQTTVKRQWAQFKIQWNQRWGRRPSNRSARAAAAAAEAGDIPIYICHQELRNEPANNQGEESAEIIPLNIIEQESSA

[2] = molecular target: Vascular endothelial growth factor receptor 1 (Homo sapiens, UniProt P17948); format: cell-based; details: huvec; further: in other assays of this panel Not Active means under 50% inhibition at 10 µM
Vascular endothelial growth factor receptor 1, sequence (P17948 whole entry): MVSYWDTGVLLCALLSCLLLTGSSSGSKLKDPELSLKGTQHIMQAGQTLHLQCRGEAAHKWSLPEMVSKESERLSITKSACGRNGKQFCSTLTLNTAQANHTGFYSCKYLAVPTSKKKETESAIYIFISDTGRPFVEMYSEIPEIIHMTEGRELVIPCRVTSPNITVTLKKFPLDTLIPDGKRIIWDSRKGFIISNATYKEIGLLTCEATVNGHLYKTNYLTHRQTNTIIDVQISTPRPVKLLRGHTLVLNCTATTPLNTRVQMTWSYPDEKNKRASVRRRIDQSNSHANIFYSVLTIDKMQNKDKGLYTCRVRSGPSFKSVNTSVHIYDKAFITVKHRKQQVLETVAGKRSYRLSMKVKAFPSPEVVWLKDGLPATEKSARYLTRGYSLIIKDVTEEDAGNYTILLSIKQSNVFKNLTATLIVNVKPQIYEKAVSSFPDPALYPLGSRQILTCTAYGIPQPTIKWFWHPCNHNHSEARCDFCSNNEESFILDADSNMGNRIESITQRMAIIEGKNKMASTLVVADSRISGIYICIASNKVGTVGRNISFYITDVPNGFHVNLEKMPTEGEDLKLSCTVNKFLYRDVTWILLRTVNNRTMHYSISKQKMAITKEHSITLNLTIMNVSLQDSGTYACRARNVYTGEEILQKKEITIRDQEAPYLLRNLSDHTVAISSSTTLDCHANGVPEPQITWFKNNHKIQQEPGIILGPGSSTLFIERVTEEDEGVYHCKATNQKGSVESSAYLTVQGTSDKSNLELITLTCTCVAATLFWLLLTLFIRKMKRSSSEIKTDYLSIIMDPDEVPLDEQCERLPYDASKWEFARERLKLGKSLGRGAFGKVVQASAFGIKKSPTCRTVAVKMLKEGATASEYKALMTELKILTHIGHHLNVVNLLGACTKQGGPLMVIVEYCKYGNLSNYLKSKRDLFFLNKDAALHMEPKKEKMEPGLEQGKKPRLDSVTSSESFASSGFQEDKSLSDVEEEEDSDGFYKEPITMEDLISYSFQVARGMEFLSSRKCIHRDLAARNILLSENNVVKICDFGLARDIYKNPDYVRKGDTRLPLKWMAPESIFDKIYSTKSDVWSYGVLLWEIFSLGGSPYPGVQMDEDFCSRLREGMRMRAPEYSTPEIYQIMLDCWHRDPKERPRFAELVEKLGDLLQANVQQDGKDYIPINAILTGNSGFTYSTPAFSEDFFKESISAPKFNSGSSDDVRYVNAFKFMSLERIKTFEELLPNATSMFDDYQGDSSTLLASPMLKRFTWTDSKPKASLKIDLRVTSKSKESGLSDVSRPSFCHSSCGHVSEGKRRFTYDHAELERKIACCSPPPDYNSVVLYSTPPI

D(1A) dopamine receptor = D(1A) dopamine receptor (Homo sapiens, UniProt P21728); assay: DRUGMATRIX: Dopamine D1 radioligand binding (ligand: [3H] SCH-23390); format: cell membranes, CHO, Membrane; details: cho; Not Active = under 50% inhibition at 10 µM
D(1A) dopamine receptor, sequence (P21728 whole entry): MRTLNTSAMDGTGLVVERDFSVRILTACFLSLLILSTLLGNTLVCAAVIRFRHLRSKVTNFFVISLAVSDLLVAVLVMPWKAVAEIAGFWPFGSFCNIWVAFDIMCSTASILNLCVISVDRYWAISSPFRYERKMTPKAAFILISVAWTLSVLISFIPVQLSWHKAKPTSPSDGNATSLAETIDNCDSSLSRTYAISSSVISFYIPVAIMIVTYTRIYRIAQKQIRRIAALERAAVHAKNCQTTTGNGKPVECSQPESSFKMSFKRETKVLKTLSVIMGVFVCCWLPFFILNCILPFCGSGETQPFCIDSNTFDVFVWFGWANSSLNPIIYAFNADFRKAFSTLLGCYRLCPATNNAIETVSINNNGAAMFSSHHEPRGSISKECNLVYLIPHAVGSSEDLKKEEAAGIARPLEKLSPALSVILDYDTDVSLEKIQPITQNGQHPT

Endothelin-1 receptor = molecular target: T2, Endothelin-1 receptor (Homo sapiens, UniProt P25101); format: cell membranes, Membrane; details: cho-k1; further: in other assays of this panel Not Active means under 50% inhibition at 10 µM
T2 sequence (P25101 whole entry): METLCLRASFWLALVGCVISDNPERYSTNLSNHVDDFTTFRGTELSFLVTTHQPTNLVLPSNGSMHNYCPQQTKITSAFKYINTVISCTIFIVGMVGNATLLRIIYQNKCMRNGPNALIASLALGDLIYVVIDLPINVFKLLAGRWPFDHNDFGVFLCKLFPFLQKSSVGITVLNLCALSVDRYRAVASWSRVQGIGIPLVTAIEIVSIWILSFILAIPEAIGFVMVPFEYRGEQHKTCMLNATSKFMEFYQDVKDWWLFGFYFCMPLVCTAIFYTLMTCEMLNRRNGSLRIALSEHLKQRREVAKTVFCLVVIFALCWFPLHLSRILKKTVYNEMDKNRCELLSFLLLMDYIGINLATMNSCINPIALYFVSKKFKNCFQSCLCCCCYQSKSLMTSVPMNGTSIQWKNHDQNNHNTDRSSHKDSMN

Glycine receptor = Glycine receptor (Rattus norvegicus, UniProt P22771+P24524+P07727+P20781); format: cell membranes, Wistar, Spinal cord, Membrane; further: in other assays of this panel Not Active means under 50% inhibition at 10 µM
[3] = molecular target: T3, Muscarinic acetylcholine receptor M5 (Homo sapiens, UniProt P08912); format: cell membranes, CHO-K1, Membrane; details: cho-k1; further: in other assays of this panel Not Active means under 50% inhibition at 10 µM
T3 sequence (P08912 whole entry): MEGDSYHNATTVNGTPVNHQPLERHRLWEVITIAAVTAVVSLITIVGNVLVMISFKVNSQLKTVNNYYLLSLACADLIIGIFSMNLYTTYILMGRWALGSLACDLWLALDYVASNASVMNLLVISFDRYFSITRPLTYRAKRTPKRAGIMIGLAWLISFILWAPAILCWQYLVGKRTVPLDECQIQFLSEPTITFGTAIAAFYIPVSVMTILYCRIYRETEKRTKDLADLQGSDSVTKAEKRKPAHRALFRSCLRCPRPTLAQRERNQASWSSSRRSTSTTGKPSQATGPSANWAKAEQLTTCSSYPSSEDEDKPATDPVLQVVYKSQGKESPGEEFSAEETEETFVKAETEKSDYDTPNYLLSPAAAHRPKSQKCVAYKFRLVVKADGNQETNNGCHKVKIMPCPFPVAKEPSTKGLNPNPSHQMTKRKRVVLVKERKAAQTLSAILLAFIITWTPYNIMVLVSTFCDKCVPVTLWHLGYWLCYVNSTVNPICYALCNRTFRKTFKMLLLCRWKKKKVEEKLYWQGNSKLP

Progesterone receptor = molecular target: T4, Progesterone receptor (Bos taurus, UniProt Q690N0); assay: DRUGMATRIX: Progesterone radioligand binding (ligand: [3H] R-5020); format: tissue-based, Uterus; details: Not Active = under 50% inhibition at 10 µM
T4 sequence (Q690N0 whole entry): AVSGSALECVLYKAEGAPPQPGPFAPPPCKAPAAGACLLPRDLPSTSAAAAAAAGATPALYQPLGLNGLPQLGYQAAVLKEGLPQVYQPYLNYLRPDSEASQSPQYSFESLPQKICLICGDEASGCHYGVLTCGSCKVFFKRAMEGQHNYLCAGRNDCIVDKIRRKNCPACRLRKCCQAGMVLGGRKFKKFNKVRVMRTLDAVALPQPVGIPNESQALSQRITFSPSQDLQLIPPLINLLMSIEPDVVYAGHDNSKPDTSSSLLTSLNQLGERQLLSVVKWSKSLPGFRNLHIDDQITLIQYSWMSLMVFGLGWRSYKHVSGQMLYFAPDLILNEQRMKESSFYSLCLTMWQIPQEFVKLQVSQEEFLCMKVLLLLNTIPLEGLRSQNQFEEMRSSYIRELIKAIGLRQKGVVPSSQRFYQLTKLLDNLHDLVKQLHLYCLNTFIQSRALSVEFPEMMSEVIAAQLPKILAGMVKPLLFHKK

[4] = molecular target: Mitogen-activated protein kinase 1 (Homo sapiens, UniProt P28482); assay: DRUGMATRIX: Protein Serine/Threonine Kinase, ERK2 enzyme inhibition (substrate: Myelin Basic Protein); design: species or system Escherichia coli; details: Not Active = under 50% inhibition at 10 µM
Mitogen-activated protein kinase 1, sequence (P28482 whole entry): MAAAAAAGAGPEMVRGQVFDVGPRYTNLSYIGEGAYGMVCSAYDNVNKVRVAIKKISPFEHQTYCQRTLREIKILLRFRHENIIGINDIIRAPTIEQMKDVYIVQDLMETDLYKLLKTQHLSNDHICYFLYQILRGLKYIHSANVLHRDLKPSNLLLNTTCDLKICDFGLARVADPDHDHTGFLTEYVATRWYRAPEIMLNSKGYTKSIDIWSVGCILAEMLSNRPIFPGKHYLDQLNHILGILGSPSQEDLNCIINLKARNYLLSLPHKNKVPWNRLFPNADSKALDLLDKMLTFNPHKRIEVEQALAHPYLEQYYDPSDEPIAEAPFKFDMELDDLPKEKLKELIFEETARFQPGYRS

Adenosine receptor A2a = Adenosine receptor A2a (Homo sapiens, UniProt P29274); assay: DRUGMATRIX: Adenosine A2A radioligand binding (ligand: […]); format: cell membranes, HEK293, Membrane; details: hek293; Not Active = under 50% inhibition at 10 µM
Adenosine receptor A2a, sequence (P29274 whole entry): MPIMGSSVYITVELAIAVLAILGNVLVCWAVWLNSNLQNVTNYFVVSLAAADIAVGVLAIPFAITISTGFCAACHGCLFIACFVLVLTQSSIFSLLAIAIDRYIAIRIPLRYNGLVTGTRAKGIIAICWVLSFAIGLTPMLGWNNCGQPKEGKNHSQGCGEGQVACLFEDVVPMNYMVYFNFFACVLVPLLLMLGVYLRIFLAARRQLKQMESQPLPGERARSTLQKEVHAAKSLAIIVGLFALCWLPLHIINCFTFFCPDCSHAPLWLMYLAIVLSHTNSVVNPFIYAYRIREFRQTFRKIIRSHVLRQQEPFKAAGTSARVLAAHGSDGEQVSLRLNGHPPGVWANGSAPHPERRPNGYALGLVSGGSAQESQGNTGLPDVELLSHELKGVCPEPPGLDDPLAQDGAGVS

Beta-1 adrenergic receptor, sequence (P08588 whole entry): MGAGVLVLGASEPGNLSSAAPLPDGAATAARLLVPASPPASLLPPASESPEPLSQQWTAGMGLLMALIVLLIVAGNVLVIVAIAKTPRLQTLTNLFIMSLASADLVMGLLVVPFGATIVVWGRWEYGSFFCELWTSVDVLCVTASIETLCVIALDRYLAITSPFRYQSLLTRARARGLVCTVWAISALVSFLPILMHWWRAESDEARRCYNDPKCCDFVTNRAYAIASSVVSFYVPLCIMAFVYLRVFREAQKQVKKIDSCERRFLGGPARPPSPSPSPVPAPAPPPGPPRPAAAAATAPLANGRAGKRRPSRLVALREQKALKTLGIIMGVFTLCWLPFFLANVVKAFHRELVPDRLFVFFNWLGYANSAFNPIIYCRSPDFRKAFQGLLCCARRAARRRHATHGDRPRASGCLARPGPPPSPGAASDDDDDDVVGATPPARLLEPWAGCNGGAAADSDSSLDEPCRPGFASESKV

C=C(C)[C@@H]1[C@H]2OC(=O)[C@@H]1[C@]1(O)C[C@H]3O[C@]34C(=O)O[C@H]2[C@]14C [PICROTOXININ]
Not Active: IC50 [1] | IC50 (Calcitonin receptor) | IC50 [2] | IC50 (D(1A) dopamine receptor) | IC50 (Endothelin-1 receptor) | IC50 (Glycine receptor) | IC50 [3] | IC50 (Progesterone receptor) | IC50 [4] | IC50 (Adenosine receptor A2a)

CARBOPLATIN
Not Active: IC50 [1] | Ki [1] | IC50 (Calcitonin receptor) | Ki (Calcitonin receptor) | IC50 [2] | Ki [2] | IC50 (D(1A) dopamine receptor) | Ki (D(1A) dopamine receptor) | IC50 (Endothelin-1 receptor) | Ki (Endothelin-1 receptor) | IC50 (Glycine receptor) | Ki (Glycine receptor) | IC50 [3] | Ki [3] | IC50 (Progesterone receptor) | Ki (Progesterone receptor) | IC50 [4] | Ki [4] | IC50 (Adenosine receptor A2a) | Ki (Adenosine receptor A2a)

c1ccc2c(c1)cc1ccc3cccc4ccc2c1c34
Not Active: IC50 [1] | IC50 (Calcitonin receptor) | IC50 [2] | IC50 (D(1A) dopamine receptor) | IC50 (Endothelin-1 receptor) | IC50 (Glycine receptor) | IC50 [3] | IC50 (Progesterone receptor) | IC50 [4] | IC50 (Adenosine receptor A2a)

CCCCOC(=O)c1ccc(N)cc1 [BUTAMBEN]
Not Active: IC50 [1] | IC50 (Calcitonin receptor) | IC50 [2] | IC50 (D(1A) dopamine receptor) | IC50 (Endothelin-1 receptor) | IC50 (Glycine receptor) | IC50 [3] | IC50 (Progesterone receptor) | IC50 [4] | IC50 (Adenosine receptor A2a)

Cc1ccccc1N1CCN(CCc2nnc3n2CCCC3)CC1 [DAPIPRAZOLE]
Not Active: IC50 [1] | IC50 (Calcitonin receptor) | IC50 [2] | IC50 (D(1A) dopamine receptor) | IC50 (Endothelin-1 receptor) | IC50 (Glycine receptor) | IC50 [3] | IC50 (Progesterone receptor) | IC50 [4] | IC50 (Adenosine receptor A2a)

CC[C@@]1(O)C(=O)OCc2c1cc1n(c2=O)Cc2cc3ccccc3nc2-1 [CAMPTOTHECIN]
Not Active: IC50 [1] | IC50 (Calcitonin receptor) | IC50 [2] | IC50 (D(1A) dopamine receptor) | IC50 (Endothelin-1 receptor) | IC50 (Glycine receptor) | IC50 [3] | IC50 (Progesterone receptor) | IC50 [4] | IC50 (Adenosine receptor A2a)

CISPLATIN
Not Active: IC50 [1] | Ki [1] | IC50 (Calcitonin receptor) | Ki (Calcitonin receptor) | IC50 [2] | Ki [2] | IC50 (D(1A) dopamine receptor) | Ki (D(1A) dopamine receptor) | IC50 (Endothelin-1 receptor) | Ki (Endothelin-1 receptor) | IC50 (Glycine receptor) | Ki (Glycine receptor) | IC50 [3] | Ki [3] | IC50 (Progesterone receptor) | Ki (Progesterone receptor) | IC50 [4] | Ki [4] | IC50 (Adenosine receptor A2a) | Ki (Adenosine receptor A2a)

OXALIPLATIN
Not Active: IC50 [1] | Ki [1] | IC50 (Calcitonin receptor) | Ki (Calcitonin receptor) | IC50 [2] | Ki [2] | IC50 (D(1A) dopamine receptor) | Ki (D(1A) dopamine receptor) | IC50 (Endothelin-1 receptor) | Ki (Endothelin-1 receptor) | IC50 (Glycine receptor) | Ki (Glycine receptor) | IC50 [3] | Ki [3] | IC50 (Progesterone receptor) | Ki (Progesterone receptor) | IC50 [4] | Ki [4] | IC50 (Adenosine receptor A2a) | Ki (Adenosine receptor A2a)

NCC(=O)O [GLYCINE]
Not Active: IC50 [1] | IC50 (Calcitonin receptor) | IC50 [2] | IC50 (D(1A) dopamine receptor) | IC50 (Endothelin-1 receptor) | IC50 (Glycine receptor) | IC50 [3] | IC50 (Progesterone receptor) | IC50 [4] | IC50 (Adenosine receptor A2a)

O=C1CCc2cc(OCCCCc3nnnn3C3CCCCC3)ccc2N1 [CILOSTAZOL]
Not Active: IC50 [1] | IC50 (Calcitonin receptor) | IC50 [2] | IC50 (D(1A) dopamine receptor) | IC50 (Endothelin-1 receptor) | IC50 (Glycine receptor) | IC50 [3] | IC50 (Progesterone receptor) | IC50 [4] | IC50 (Adenosine receptor A2a)
